Patent EP0093620A1, “Fungicidal N-phenylcarbamates” (priority 1982, dated 1983)

How the values were obtained:
[1] = system: drug-sensitive strain of Cercospora beticola; conditions: for pest or weed control at 200 ppm: Cercospora beticola, in Beta vulgaris, topical, 240 h, read-out: Prevention value when inoculated with drug-sensitive strain; for Prevention value when inoculated with drug-sensitive strain: 200 ppm active ingredient, sugarbeet seedlings, spray, 10 days
Experimental: (§1) The leaves examined were measured for a percentage of infected area and classified into the corresponding disease indices, 0, 0.5, 1, 2, 4:
(§2) The disease severity was calculated according to the following equation: [formula]
(§3) The prevention value was calculated according to the following equation: [formula]
(§4) Preventive effect on cercospora leaf spot of sugarbeet (Cercospora beticola):-A flower pot of 90 ml volume was filled with sandy soil, and seeds of sugarbeet (var: Detroit dark red) were sowed therein. Cultivation was carried out in a greenhouse for 20 days. Onto the resulting seedlings, the test compound formulated in emulsifiable concentrate or wettable powder and diluted with water was sprayed at a rate of 10 ml per pot. Then, the seedlings were inoculated with a spore suspension of the drug-resistant or drug-sensitive strain of Cercospora beticola by spraying. The pot was covered with a polyvinyl chloride sheet to make a condition of high humidity, and cultivation was continued in the greenhouse for 10 days.

[2] = system: drug-sensitive strain of Sphaerotheca fuliginea; conditions: for pest or weed control at 200 ppm: Podosphaera fuliginea, in Cucumis sativus, topical, 240 h, read-out: Prevention value when inoculated with drug-sensitive strain; for Prevention value when inoculated with drug-sensitive strain: 200 ppm active ingredient, cucumber seedlings, spray, 10 days after inoculation
Experimental: (§5) Protective activity test on powdery mildew of cucumber (Sphaerotheca fuliginea):-
(§6) A flower pot of 90 ml volume was filed with sandy soil, and seeds of cucumber (var: Sagami-hanjiro) were sowed therein. Cultivation was carried out in a greenhouse for 8 days. Onto the resulting seedlings having cotyledons, the test compound formulated in emulsifiable concentrate or wettable powder and diluted with water was sprayed at a rate of 10 ml per pot. Then, the seedlings were inoculated with a spore suspension of the drug-resistant or drug-sensitive strain of Sphaerotheca fuliginea by spraying and further cultivated in the greenhouse. Ten days thereafter, the infectious state of-the plants was observed.
as §1, §2, §3

[3] = system: drug-resistant strain of Cercospora beticola; conditions: for pest or weed control at 200 ppm: Cercospora beticola, in Beta vulgaris, topical, 240 h, read-out: Prevention value when inoculated with drug-resistant strain; for Prevention value when inoculated with drug-resistant strain: 200 ppm active ingredient, sugarbeet seedlings, spray, 10 days
Experimental: as §1, §2, §3, §4

[4] = system: drug-resistant strain of Botrytis cinerea; assay: Preventive effect on gray mold of cucumber, drug-resistant strain; conditions: 200 ppm active ingredient, cucumber seedlings, mycelial disks, 3 days
Experimental: as §1, §2, §3
(§7) Preventive effect on gray mold of cucumber (Botrytis cinerea):-
(§8) Plastic pots of 90 ml volume were filled with sandy soil, and seeds of cucumber (var: Sagami-hanjiro) were sowed therein. Cultivation was carried out in a greenhouse for 8 days to obtain cucumber seedlings expanding cotyledons. Onto the resulting seedlings, the test compound formulated in emulsifiable concentrate or wettable powder and diluted with water was sprayed at a rate of 10 ml per pot. After air-drying, the seedlings were inoculated with mycelial disks (5 mm in diameter) of the drug-resistant or drug-sensitive strain of Botrytis cinerea by putting them on the leaf surfaces. After the plants were infected by incubating under high humidity at 20°C for 3 days, the rates of disease severity were observed.

[5] = system: drug-resistant strain of Sphaerotheca fuliginea; conditions: for pest or weed control at 200 ppm: Podosphaera fuliginea, in Cucumis sativus, topical, 240 h, read-out: Prevention value when inoculated with drug-resistant strain; for Prevention value when inoculated with drug-resistant strain: 200 ppm active ingredient, cucumber seedlings, spray, 10 days after inoculation
Experimental: as §5, §6, §1, §2, §3

[6] = system: drug-sensitive strain of Botrytis cinerea; assay: Preventive effect on gray mold of cucumber, drug-sensitive strain; conditions: 200 ppm active ingredient, cucumber seedlings, mycelial disks, 3 days
Experimental: as §1, §2, §3, §7, §8

[7] = system: drug-sensitive strain of Venturia nashicola; assay: Preventive effect on scab of pear, drug-sensitive strain; conditions: 200 ppm active ingredient, pear seedlings, spray
Experimental: as §1, §2, §3
(§9) A plastic pot of 90 ml volume was filled with sandy soil, and seeds of pear (var: Chojuro) were sowed . therein. Cultivation was carried out in a greenhouse for 20 days. Onto the resulting seedlings, the test compound formulated in emulsifiable concentrate or wettable powder and diluted with water was sprayed at a rate of 10 ml per pot. Then, the seedlings were inoculated with a spore suspension of the drug-resistant or drug-sensitive strain of Venturia nashicola by spraying. The resulting plants were placed at 20°C under a condition of high humidity for 3 days and then at 20°C under irradiation with a fluorescent lamp for 20 days.

[8] = system: drug-resistant strain of Venturia nashicola; assay: Preventive effect on scab of pear, drug-resistant strain; conditions: 200 ppm active ingredient, pear seedlings, spray
Experimental: as §1, §2, §3, §9

Pyricularia oryzae = conditions: in vivo

Compound | pest or weed control at 200 ppm [1] [%] | pest or weed control at 200 ppm [2] [%] | pest or weed control at 200 ppm [3] [%] | Prevention value when inoculated with drug-resistant strain [4] [%] | pest or weed control at 200 ppm [5] [%] | Prevention value when inoculated with drug-sensitive strain [6] [%] | Prevention value when inoculated with drug-sensitive strain [7] [%] | Prevention value when inoculated with drug-resistant strain [8] [%] | Prevention value when inoculated with drug-sensitive strain [1] [%] | Prevention value when inoculated with drug-sensitive strain [2] [%] | Prevention value when inoculated with drug-resistant strain [3] [%] | Prevention value when inoculated with drug-resistant strain [5] [%] | Prevention value (Pyricularia oryzae) [%]
CCCCNC(=O)n1c(NC(=O)OC)nc2ccccc21 [A, Methyl 1-(butyl-carbamoyl)benz-imidazol-2-yl-carbamate] | 100 | 100 | 0 | 0 | 0 | 100 | 100 | 0 |  |  |  |  | 
O=C(Nc1cccc(Cl)c1)OCC#CCCl [Barban, 4-chloro-2-butynyl N-(3-chlorophenyl)carbamate] | 0 | 0 | 34 |  | 25 |  |  |  |  |  |  |  | 
COC(=O)Nc1nc2ccccc2[nH]1 [C, Methyl benzimidazol-2-ylcarbamate] | 100 | 100 | 0 |  | 0 |  |  |  |  |  |  |  | 
O=C(Nc1cccc(Cl)c1)OCCCl [CEPC] |  |  |  |  |  |  |  |  | 0 | 0 | 0 | 0 | 
C#CC(C)OC(=O)Nc1cccc(Cl)c1 (stereo not drawn) [Chlorbufam, 1-methyl-2-propynyl N-(3-chlorophenyl)carbamate] | 100 | 100 | 0 |  | 0 |  |  |  |  |  |  |  | 
CC(C)OC(=O)Nc1cccc(Cl)c1 [Chlorpropham, isopropyl N-(3-chlorophenyl)carbamate] | 0 | 0 | 0 |  | 0 |  |  |  |  |  |  |  | 
CCOc1ccc(NC(=O)OC(C)C)cc1CC [Compound No. 50, isopropyl N-(3-ethyl-4-ethoxyphenyl)carbamate] | 0 | 0 | 100 | 100 | 100 | 0 | 0 | 98 |  |  |  |  | 
CCOc1ccc(N(C(=O)OC(C)C)C(=O)c2ccccc2)cc1COC [Compound No. 134, isopropyl N-benzoyl-N-(3-methoxymethyl-4-ethoxyphenyl)carbamate] |  |  |  | 100 |  | 0 |  |  |  |  |  |  | 
COC(=O)NC(=S)Nc1ccccc1NC(=S)NC(=O)OC [E, 1,2-Bis(3-methoxy-carbonyl-2-thio-ureido)benzene] | 100 | 100 | 0 | 0 | 0 | 100 | 100 | 0 |  |  |  |  | 
CCOP(=O)(Sc1ccccc1)Sc1ccccc1 [Edifenphos] |  |  |  |  |  |  |  |  |  |  |  |  | 97
CC(C)OC(=O)Nc1ccccc1 [Propham, isopropyl N-phenylcarbamate] | 0 | 0 | 0 |  | 0 |  |  |  |  |  |  |  | 
COC(=O)Nc1ccc(Cl)c(Cl)c1 [Swep] |  |  |  |  |  |  |  |  | 0 | 0 | 0 | 0 | 
CCOc1ccc(NC(=O)OC(C)C)cc1COC [compound 77, isopropyl N-(3-methoxymethyl-4-ethoxyphenyl)carbamate] | 0 | 0 | 100 | 100 | 100 | 0 | 0 | 100 |  |  |  |  | 
